Emax and EC50 data for one compound are collected here from US20240182457A1, “OXADIAZOLE-SUBSTITUTED SPIROCYCLIC COMPOUND AND APPLICATION THEREOF” (HELIOEAST PHARMACEUTICAL CO., LTD., priority 2021, published 2024).

For the test, the target named is T1, S1PR1 (Homo sapiens, UniProt P21453).
T1 construct: expressed in transfected cells
The experiment in a line: In vitro agonist activity on S1PR1 (PathHunter cell line, chemiluminescence). The test is classed as cell-based. How it is done:
Test example 1: Evaluating the in vitro agonist activity of the compound of the present disclosure on S1PR1
Experimental purpose: To assess the agonist activity of the compound on S1PR1
I. Cell Treatment • 1. The PathHunter cell line was thawed according to standard procedures. • 2. The cells were seeded in a 384-well plate with a volume of 20 μL, and incubated at 37° C. for an appropriate duration.
II. Agonist • 1. For the agonist evaluation, the cells were co-cultured with the test samples to induce a reaction. • 2. The test stock solution was diluted 5-fold using the buffer. • 3. 5 μL of the 5-fold diluted solution was added to the cells, and incubated at 37° C. for 90 to 180 minutes. The vehicle concentration was maintained at 1%.
III. Signal Detection • 1. Either 12.5 μL or 15 μL of the PathHunter detection reagent (at a 50% v/v ratio) was added each time, followed by a 1-hour incubation at room temperature to allow for detection signal generation. • 2. Chemiluminescence signal detection was conducted using a PerkinElmer Envision™ microplate reader.
IV. Data Analysis • 1. The activity of the compound was analyzed using the CBIS suite for data analysis (ChemInnovation, CA). • 2. Formula for calculation:
% Activity=100%× (Average sample RLU—Average vehicle RLU)/(Average maximum control ligand RLU—Average vehicle RLU)

T1 sequence (P21453 whole entry): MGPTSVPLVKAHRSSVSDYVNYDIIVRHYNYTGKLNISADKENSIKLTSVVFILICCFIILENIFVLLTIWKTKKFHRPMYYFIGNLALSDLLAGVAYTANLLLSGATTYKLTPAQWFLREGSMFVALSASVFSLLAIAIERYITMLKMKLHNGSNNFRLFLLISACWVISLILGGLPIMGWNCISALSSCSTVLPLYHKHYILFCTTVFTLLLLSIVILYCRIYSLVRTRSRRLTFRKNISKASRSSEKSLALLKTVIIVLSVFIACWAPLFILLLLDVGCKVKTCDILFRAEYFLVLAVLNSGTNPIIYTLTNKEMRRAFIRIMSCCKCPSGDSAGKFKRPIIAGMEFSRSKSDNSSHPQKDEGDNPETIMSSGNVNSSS

The Emax is the size of the effect at its maximum, as opposed to the concentration needed. What is called EC50 is the concentration needed to bring the measured effect to its halfway point. As to `CC(C)Oc1cc(-c2nc(-c3cccc4c3CCC43CCN(C(C)(C)CO)C3)no2)ccc1C#N` (centres unmarked) [Compound 1], the Emax (% Activity relative to maximum control ligand) is 110%. The compound further had an EC50 (incubated at 37° C. for 90 to 180 minutes) of 657 pM.
